Assay results: PubChem BioAssay (NCI)
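Cultured in 96-well plates, cells were exposed to test compound for 48 hours across five concentrations. GI50 is the concentration that inhibits growth by half. TGI is the concentration that stops growth completely.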

Assays:
Test in all cases: NCI anticancer screen, dose series, 48 h
SNB-75 CNS = system: SNB-75 CNS
U251 CNS = system: U251 CNS
T-47D breast = system: T-47D breast
LOX IMVI melanoma = system: LOX IMVI melanoma
NCI-H23 lung = system: NCI-H23 lung
NCI/ADR-RES ovarian = system: NCI/ADR-RES ovarian
HCT-15 colon = system: HCT-15 colon
HCC-2998 colon = system: HCC-2998 colon
COLO 205 colon = system: COLO 205 colon
UACC-257 melanoma = system: UACC-257 melanoma
DU-145 prostate = system: DU-145 prostate
HL-60(TB) leukemia = system: HL-60(TB) leukemia
SK-MEL-5 melanoma = system: SK-MEL-5 melanoma
SF-295 CNS = system: SF-295 CNS
SW-620 colon = system: SW-620 colon
HT29 colon = system: HT29 colon
A549 NSCLC = system: A549 NSCLC
SK-OV-3 ovarian = system: SK-OV-3 ovarian
PC-3 prostate = system: PC-3 prostate
SR leukemia = system: SR leukemia
786-0 renal = system: 786-0 renal
MCF7 breast = system: MCF7 breast
SK-MEL-2 melanoma = system: SK-MEL-2 melanoma
ACHN renal = system: ACHN renal
SNB-19 CNS = system: SNB-19 CNS
MDA-MB-435 = system: MDA-MB-435
HOP-62 NSCLC = system: HOP-62 NSCLC
MOLT-4 leukemia = system: MOLT-4 leukemia
M14 melanoma = system: M14 melanoma
HS 578T breast = system: HS 578T breast
IGROV1 ovarian = system: IGROV1 ovarian
K-562 leukemia = system: K-562 leukemia
CCRF-CEM leukemia = system: CCRF-CEM leukemia
MALME-3M melanoma = system: MALME-3M melanoma
NCI-H460 lung = system: NCI-H460 lung
CAKI-1 renal = system: CAKI-1 renal
RXF 393 renal = system: RXF 393 renal
TK-10 renal = system: TK-10 renal
OVCAR-5 ovarian = system: OVCAR-5 ovarian
SF-268 CNS = system: SF-268 CNS
RPMI-8226 leukemia = system: RPMI-8226 leukemia
UO-31 renal = system: UO-31 renal
MDA-MB-231 breast = system: MDA-MB-231 breast
OVCAR-4 ovarian = system: OVCAR-4 ovarian
BT-549 breast = system: BT-549 breast
OVCAR-3 ovarian = system: OVCAR-3 ovarian
SF-539 CNS = system: SF-539 CNS
NCI-H522 lung = system: NCI-H522 lung
SN12C renal = system: SN12C renal
SK-MEL-28 melanoma = system: SK-MEL-28 melanoma
OVCAR-8 ovarian = system: OVCAR-8 ovarian
KM12 colon = system: KM12 colon
EKVX NSCLC = system: EKVX NSCLC
HCT-116 colon = system: HCT-116 colon
UACC-62 melanoma = system: UACC-62 melanoma
HOP-92 NSCLC = system: HOP-92 NSCLC

Compound: [N-]=[N+]=Nc1c(Cc2ccccc2)c(=O)oc2ccccc12
- TGI (SNB-75 CNS): > 100 µM
- TGI (U251 CNS): 69.7 µM
- TGI (T-47D breast): > 100 µM
- TGI (LOX IMVI melanoma): 28.4 µM
- TGI (NCI-H23 lung): 78.1 µM
- TGI (NCI/ADR-RES ovarian): > 100 µM
- TGI (HCT-15 colon): > 100 µM
- TGI (HCC-2998 colon): 62.1 µM
- TGI (COLO 205 colon): 98.4 µM
- TGI (UACC-257 melanoma): > 100 µM
- TGI (DU-145 prostate): > 100 µM
- TGI (HL-60(TB) leukemia): > 100 µM
- TGI (SK-MEL-5 melanoma): 20.2 µM
- TGI (SF-295 CNS): > 100 µM
- TGI (SW-620 colon): 39.7 µM
- TGI (HT29 colon): 54.5 µM
- TGI (A549 NSCLC): > 100 µM
- TGI (SK-OV-3 ovarian): > 100 µM
- TGI (PC-3 prostate): > 100 µM
- TGI (SR leukemia): > 100 µM
- TGI (786-0 renal): > 100 µM
- TGI (MCF7 breast): 70.9 µM
- TGI (SK-MEL-2 melanoma): 78.8 µM
- TGI (ACHN renal): > 100 µM
- TGI (SNB-19 CNS): > 100 µM
- TGI (MDA-MB-435): 58.5 µM
- TGI (HOP-62 NSCLC): 50.3 µM
- TGI (MOLT-4 leukemia): 26.2 µM
- TGI (M14 melanoma): 62.3 µM
- TGI (HS 578T breast): 61.3 µM
- TGI (IGROV1 ovarian): 70.6 µM
- TGI (K-562 leukemia): 86.9 µM
- TGI (CCRF-CEM leukemia): 45.8 µM
- TGI (MALME-3M melanoma): > 100 µM
- TGI (NCI-H460 lung): 57.3 µM
- TGI (CAKI-1 renal): > 100 µM
- TGI (RXF 393 renal): 38 µM
- TGI (TK-10 renal): 60.4 µM
- TGI (OVCAR-5 ovarian): > 100 µM
- TGI (SF-268 CNS): 62.1 µM
- TGI (RPMI-8226 leukemia): > 100 µM
- TGI (UO-31 renal): > 100 µM
- TGI (MDA-MB-231 breast): > 100 µM
- TGI (OVCAR-4 ovarian): > 100 µM
- TGI (BT-549 breast): 46.9 µM
- TGI (OVCAR-3 ovarian): > 100 µM

Compound: CCC(CC)c1nc(Nc2cccc(OC)c2)c2ccccc2n1
- GI50 (SF-539 CNS): 8.29 µM
- TGI (SF-539 CNS): 15.1 µM
- GI50 (U251 CNS): 7.98 µM
- TGI (U251 CNS): 14.7 µM
- GI50 (T-47D breast): 0.005 µM
- TGI (T-47D breast): 0.234 µM
- GI50 (LOX IMVI melanoma): 6.43 µM
- TGI (LOX IMVI melanoma): 12.7 µM
- GI50 (NCI-H23 lung): 8.27 µM
- TGI (NCI-H23 lung): 15.1 µM
- GI50 (NCI/ADR-RES ovarian): 10.3 µM
- TGI (NCI/ADR-RES ovarian): 17.4 µM
- GI50 (HCT-15 colon): 7.45 µM
- TGI (HCT-15 colon): 14.1 µM
- GI50 (HCC-2998 colon): 7.68 µM
- TGI (HCC-2998 colon): 14.3 µM
- GI50 (COLO 205 colon): 11 µM
- TGI (COLO 205 colon): 18.3 µM
- GI50 (UACC-257 melanoma): 8.06 µM
- TGI (UACC-257 melanoma): 14.8 µM
- GI50 (DU-145 prostate): 6.48 µM
- TGI (DU-145 prostate): 12.8 µM
- GI50 (HL-60(TB) leukemia): 12 µM
- TGI (HL-60(TB) leukemia): > 50 µM
- GI50 (SK-MEL-5 melanoma): 6.07 µM
- TGI (SK-MEL-5 melanoma): 12.3 µM
- GI50 (NCI-H522 lung): 7.51 µM
- TGI (NCI-H522 lung): 15.3 µM
- GI50 (SF-295 CNS): 6.55 µM
- TGI (SF-295 CNS): 12.9 µM
- GI50 (SW-620 colon): 7.47 µM
- TGI (SW-620 colon): 14.1 µM
- GI50 (SN12C renal): 7.35 µM
- TGI (SN12C renal): 13.9 µM
- GI50 (SK-MEL-28 melanoma): 6.72 µM
- TGI (SK-MEL-28 melanoma): 13.1 µM
- GI50 (A549 NSCLC): 7.11 µM
- TGI (A549 NSCLC): 13.6 µM
- GI50 (PC-3 prostate): 6.86 µM
- TGI (PC-3 prostate): 13.3 µM
- GI50 (SR leukemia): 9.81 µM
- TGI (SR leukemia): 24.2 µM
- GI50 (786-0 renal): 11 µM
- TGI (786-0 renal): 18.2 µM
- GI50 (MCF7 breast): 10.6 µM
- TGI (MCF7 breast): > 50 µM
- GI50 (SK-MEL-2 melanoma): 7.11 µM
- TGI (SK-MEL-2 melanoma): 15.2 µM
- GI50 (ACHN renal): 7.71 µM
- TGI (ACHN renal): 14.4 µM
- GI50 (SNB-19 CNS): 6.86 µM
- TGI (SNB-19 CNS): 13.3 µM
- GI50 (MDA-MB-435): 6.92 µM
- TGI (MDA-MB-435): 13.4 µM
- GI50 (HOP-62 NSCLC): 8.06 µM
- TGI (HOP-62 NSCLC): 14.8 µM
- GI50 (OVCAR-8 ovarian): 8.85 µM
- TGI (OVCAR-8 ovarian): 17.9 µM
- GI50 (M14 melanoma): 11.3 µM
- TGI (M14 melanoma): 18.5 µM
- GI50 (KM12 colon): 6.11 µM
- TGI (KM12 colon): 12.3 µM
- GI50 (HS 578T breast): 7.71 µM
- TGI (HS 578T breast): 15.4 µM
- GI50 (IGROV1 ovarian): 10.2 µM
- TGI (IGROV1 ovarian): 19.2 µM
- GI50 (K-562 leukemia): 4.3 µM
- TGI (K-562 leukemia): > 50 µM
- GI50 (NCI-H460 lung): 12.9 µM
- TGI (NCI-H460 lung): 38.4 µM
- GI50 (CAKI-1 renal): 5.9 µM
- TGI (CAKI-1 renal): 12 µM
- GI50 (RXF 393 renal): 7.29 µM
- TGI (RXF 393 renal): 14.7 µM
- GI50 (TK-10 renal): 10.7 µM
- TGI (TK-10 renal): 17.9 µM
- GI50 (EKVX NSCLC): 8.05 µM
- TGI (EKVX NSCLC): 14.8 µM
- GI50 (OVCAR-5 ovarian): 9.68 µM
- TGI (OVCAR-5 ovarian): 16.7 µM
- GI50 (HCT-116 colon): 8.31 µM
- TGI (HCT-116 colon): 15.1 µM
- GI50 (SF-268 CNS): 11.5 µM
- TGI (SF-268 CNS): 29.5 µM
- GI50 (RPMI-8226 leukemia): 5.41 µM
- TGI (RPMI-8226 leukemia): 11.3 µM
- GI50 (UACC-62 melanoma): 7.28 µM
- TGI (UACC-62 melanoma): 13.8 µM
- GI50 (UO-31 renal): 6.95 µM
- TGI (UO-31 renal): 13.4 µM
- GI50 (MDA-MB-231 breast): 6.57 µM
- TGI (MDA-MB-231 breast): 12.9 µM
- GI50 (OVCAR-4 ovarian): 6.95 µM
- TGI (OVCAR-4 ovarian): 13.6 µM
- GI50 (BT-549 breast): 7.19 µM
- TGI (BT-549 breast): 13.7 µM
- GI50 (HOP-92 NSCLC): 2.86 µM
- TGI (HOP-92 NSCLC): 9.98 µM
- GI50 (OVCAR-3 ovarian): 5.9 µM
- TGI (OVCAR-3 ovarian): 12 µM
